Among the test systems are RXF 393 renal; ACHN renal; HT29 colon; RPMI-8226 leukemia; 786-0 renal; HOP-92 NSCLC; OVCAR-5 ovarian; HCT-15 colon.
Holding throughout (experiment): DTP human tumour cell line panel, 48 h

The results in this text go back to PubChem BioAssay (NCI).

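Test compounds were applied to cells in 96-well plates for 48 hours at 5 doses. GI50: concentration for 50% inhibition of growth. TGI: total growth inhibition.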

Regarding `C/C(CC(=O)Nc1cc(Cl)c(Cl)cc1Cl)=N\NS(=O)(=O)c1ccc(C)cc1`, the TGI (commonly the concentration at which net growth stops) in the experiment with RXF 393 renal was 82.7 µM; in the experiment on ACHN renal, 79.8 µM; in the experiment with HT29 colon it was greater than 100 µM; in the experiment on RPMI-8226 leukemia it was 87.2 µM; with 786-0 renal, greater than 100 µM; with HOP-92 NSCLC, 59 µM. In addition, in the experiment on OVCAR-5 ovarian, the TGI was greater than 100 µM.

Consider `O=C1/C(=C/c2ccc(Cl)cc2)COc2ccc(Br)cc21`, for which the TGI was greater than 100 µM with RXF 393 renal; greater than 100 µM with ACHN renal; greater than 100 µM with HT29 colon; 74.4 µM in the experiment with RPMI-8226 leukemia; greater than 100 µM with 786-0 renal; greater than 100 µM in the experiment with HOP-92 NSCLC. Besides, in the experiment on OVCAR-5 ovarian, the TGI is greater than 100 µM.

Regarding `COc1ccccc1NC(=O)NS(=O)(=O)c1ccccc1`, the TGI with RXF 393 renal is 98.2 µM; in the experiment on ACHN renal, greater than 100 µM; with HT29 colon it was greater than 100 µM; in the experiment on 786-0 renal it was greater than 100 µM; in the experiment with HOP-92 NSCLC, greater than 100 µM; in the experiment with OVCAR-5 ovarian, greater than 100 µM.

For the compound `CC(C(=O)C(C)O[Si](c1ccccc1)(c1ccccc1)C(C)(C)C)=P(c1ccccc1)(c1ccccc1)c1ccccc1` (stereo unspecified), the concentration for total growth inhibition (TGI) in the experiment on HCT-15 colon was determined as 18.8 µM; in the experiment on ACHN renal, 14.6 µM; with HT29 colon, 11.5 µM; in the experiment with RPMI-8226 leukemia, 6.58 µM; in the experiment on 786-0 renal, 15.4 µM; in the experiment with HOP-92 NSCLC, 4.74 µM. This compound also had a TGI with OVCAR-5 ovarian of 24.9 µM.

`O=C1/C(=C/c2ccccc2)CN(C(=O)Oc2ccccc2)C/C1=C\c1ccccc1`: the TGI was greater than 100 µM with HCT-15 colon; 31.4 µM with RXF 393 renal; greater than 100 µM in the experiment with ACHN renal; greater than 100 µM in the experiment on HT29 colon; 0.819 µM in the experiment on RPMI-8226 leukemia; 49.1 µM with 786-0 renal. The TGI in the experiment with OVCAR-5 ovarian is greater than 100 µM.

On to `CCCN(CCC)c1c([N+](=O)[O-])cc(C(N)=O)cc1[N+](=O)[O-]`, for which the TGI in the experiment on HCT-15 colon, in the experiment with ACHN renal, in the experiment with HT29 colon, in the experiment with RPMI-8226 leukemia, with 786-0 renal and in the experiment with OVCAR-5 ovarian was greater than 100 µM in each case.

For the compound `COc1cccc(C2N3CCCCC3[C@@H]3c4[nH]c5ccccc5c4CCN23)c1OC` (stereo partly specified), the concentration for total growth inhibition (TGI) in the experiment on HCT-15 colon was found to be 30.8 µM; with RXF 393 renal it was 27.9 µM; in the experiment on ACHN renal, 28.6 µM; in the experiment with HT29 colon it was 25.5 µM; in the experiment with RPMI-8226 leukemia, 42.7 µM; in the experiment with 786-0 renal, 32.4 µM. For the same compound, the TGI with HOP-92 NSCLC is 31.6 µM; with OVCAR-5 ovarian it was 29.4 µM.

As for `COc1ccc2nc(NC(=O)C(=O)C(C#N)c3ccc(CC#N)cc3)sc2c1` (stereo unspecified), the total growth inhibition concentration (TGI) in the experiment on HCT-15 colon, in the experiment on RXF 393 renal, with ACHN renal, in the experiment on HT29 colon, with RPMI-8226 leukemia and in the experiment with 786-0 renal was greater than 100 µM each time. For the same compound, the TGI in the experiment on HOP-92 NSCLC and in the experiment with OVCAR-5 ovarian was greater than 100 µM throughout.

In the case of `CCc1cc2c(c3[nH]ccc13)[C@@H](C)C[C@H]2C`, the TGI in the experiment on HCT-15 colon was 30.9 µM; with RXF 393 renal it was 28.7 µM; in the experiment on ACHN renal, 30.9 µM; in the experiment with HT29 colon, 43.8 µM; with RPMI-8226 leukemia, 46 µM; in the experiment with 786-0 renal it was 28.2 µM. Moreover, the concentration for total growth inhibition (TGI) in the experiment on HOP-92 NSCLC worked out at 32.6 µM.

In the case of `O=C1CCC(=O)C(C(=O)CCC(=O)Nc2ccc(Cl)cc2)C1` (stereo unspecified), the total growth inhibition concentration (TGI) in the experiment on HCT-15 colon, in the experiment with ACHN renal, with HT29 colon, in the experiment on RPMI-8226 leukemia, in the experiment on 786-0 renal and in the experiment with HOP-92 NSCLC was greater than 100 µM throughout. Besides, the TGI in the experiment on OVCAR-5 ovarian is greater than 100 µM.

In the case of `CC1CC(=O)CC[C@@H]1OCc1ccccc1` (stereo partly specified), the TGI in the experiment on HCT-15 colon, with RXF 393 renal, with ACHN renal, in the experiment on HT29 colon, with RPMI-8226 leukemia and in the experiment with 786-0 renal was greater than 100 µM in each case. In the experiment with OVCAR-5 ovarian, the concentration for total growth inhibition (TGI) is greater than 100 µM.

As for `Cc1ccc(/C=C2\CN(C(=O)CCN3CCC(=NO)CC3)C/C(=C\c3ccc(C)cc3)C2=O)cc1`, the GI50 – broadly, the concentration giving 50% growth inhibition – in the experiment with RXF 393 renal is 1.64 µM; in the experiment with ACHN renal, 1.4 µM; in the experiment on RPMI-8226 leukemia it was 0.286 µM; in the experiment on 786-0 renal it was 1.68 µM; in the experiment on HOP-92 NSCLC it was 1.86 µM; in the experiment with OVCAR-5 ovarian, 1.79 µM. Also, the TGI in the experiment on RXF 393 renal amounted to 3.05 µM; in the experiment with ACHN renal, 2.83 µM; in the experiment on RPMI-8226 leukemia it was 0.885 µM; in the experiment on 786-0 renal, 3.42 µM; in the experiment on HOP-92 NSCLC, 4.6 µM; in the experiment with OVCAR-5 ovarian, 3.47 µM.

For the compound `COC(=O)C([O][Ge]([CH3])([CH3])[CH3])c1ccccc1` (stereo unspecified), the GI50 with HCT-15 colon, with ACHN renal, with HT29 colon, in the experiment on 786-0 renal, in the experiment on HOP-92 NSCLC and in the experiment on OVCAR-5 ovarian was greater than 100 µM each time. In addition, the concentration for total growth inhibition (TGI) with HCT-15 colon, in the experiment on ACHN renal, in the experiment on HT29 colon, in the experiment on 786-0 renal, in the experiment with HOP-92 NSCLC and in the experiment with OVCAR-5 ovarian was greater than 100 µM in each case.
